According to ChEMBL document CHEMBL1201862, “PubChem BioAssay data set” (2004):
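Test compounds were applied to cells in 96-well plates for 48 hours at 5 doses. Here, GI50 denotes the concentration required for 50% inhibition of growth.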 Calls of active or inactive are those of the source. Cut-off read from the data, not from the text of the source: active = GI50 up to about 1.1 µM and inactive = higher.

Experiments:
Assay in all cases: NCI anticancer screen, dose series, 48 h
[1] = test system: Malme-3M
[2] = test system: SK-MEL-5
[3] = test system: HCT-116
[4] = test system: MDA-MB-231
[5] = test system: OVCAR-5
[6] = test system: MOLT-4
[7] = test system: HOP-92
[8] = test system: BT-549
[9] = test system: CAKI-1
[10] = test system: EKVX
[11] = test system: OVCAR-4
[12] = test system: UACC-257
[13] = test system: K562
[14] = test system: MDA-N
[15] = test system: NCI/ADR-RES
[16] = test system: COLO 205
[17] = test system: UACC-62
[18] = test system: A549
[19] = test system: SK-MEL-28
[20] = test system: TK-10
[21] = test system: M14
[22] = test system: Hs-578T
[23] = test system: SF-295
[24] = test system: SNB-19
[25] = test system: OVCAR-3
[26] = test system: DU-145
[27] = test system: IGROV-1
[28] = test system: SW-620
[29] = test system: SK-OV-3
[30] = test system: HCT-15
[31] = test system: U-251
[32] = test system: A498
[33] = test system: MDA-MB-435
[34] = test system: PC-3
[35] = test system: UO-31
[36] = test system: HOP-62
[37] = test system: NCI-H460
[38] = test system: HCC 2998
[39] = test system: SN12C
[40] = test system: NCI-H23
[41] = test system: HL-60
[42] = test system: SF-539
[43] = test system: NCI-H522
[44] = test system: MCF7
[45] = test system: LOX IMVI
[46] = test system: T47D
[47] = test system: HT-29
[48] = test system: 786-0
[49] = test system: SNB-75
[50] = test system: CCRF-CEM
[51] = test system: SK-MEL-2
[52] = test system: SF-268
[53] = test system: RPMI-8226
[54] = test system: KM12
[55] = test system: RXF 393
[56] = test system: SR
[57] = test system: ACHN
[58] = test system: OVCAR-8
[59] = test system: NCI-H226

In the case of CN(CCNCc1cn(C)c2c1ccc1ccccc12)CCNCc1cn(C)c2c1ccc1ccccc12, the GI50 [1] is reported as 1.87 µM (inactive), the GI50 [2] is reported as 1.87 µM (inactive) and the GI50 [3] is reported as 1.45 µM (inactive). For the same molecule, the GI50 [4] was 1.79 µM (inactive), the GI50 [5] was 1.74 µM (inactive) and the GI50 [6] was 1.09 µM (active). The GI50 [7] was 1.6 µM (inactive), the GI50 [8] was 1.57 µM (inactive) and the GI50 [9] was 1.73 µM (inactive). For the same molecule, the GI50 [10] was 1.72 µM (inactive), the GI50 [11] was 1.33 µM (inactive) and the GI50 [12] was 1.55 µM (inactive). For the same molecule, the GI50 [13] was 0.458 µM (active), the GI50 [14] was 1.77 µM (inactive) and the GI50 [15] was 1.54 µM (inactive). For the same molecule, the GI50 [16] was 0.948 µM (active), the GI50 [17] was 1.67 µM (inactive) and the GI50 [18] was 1.45 µM (inactive). The GI50 [19] was 1.43 µM (inactive), the GI50 [20] was 1.64 µM (inactive) and the GI50 [21] was 0.726 µM (active). For the same molecule, the GI50 [22] was 1.64 µM (inactive), the GI50 [23] was 1.79 µM (inactive) and the GI50 [24] was 1.39 µM (inactive). For the same molecule, the GI50 [25] was 1.84 µM (inactive), the GI50 [26] was 1.64 µM (inactive) and the GI50 [27] was 1.6 µM (inactive). The GI50 [28] was 1.35 µM (inactive), the GI50 [29] was 1.76 µM (inactive) and the GI50 [30] was 1.46 µM. The GI50 [31] was 0.9 µM (active), the GI50 [32] was 0.188 µM (active) and the GI50 [33] was 1.78 µM (inactive). For the same molecule, the GI50 [34] was 1.47 µM (inactive), the GI50 [35] was 1.39 µM (inactive) and the GI50 [36] was 1.79 µM (inactive). For the same molecule, the GI50 [37] was 0.583 µM (active), the GI50 [38] was 0.301 µM (active) and the GI50 [39] was 1.56 µM (inactive). For the same molecule, the GI50 [40] was 1.64 µM (inactive), the GI50 [41] was 1.06 µM (active) and the GI50 [42] was 1.77 µM (inactive). The GI50 [43] was 1.77 µM (inactive), the GI50 [44] was 0.333 µM (active) and the GI50 [45] was 1.52 µM (inactive). The GI50 [46] was 1.86 µM (inactive), the GI50 [47] was 1.61 µM (inactive) and the GI50 [48] was 0.881 µM (active). For the same molecule, the GI50 [49] was 1.21 µM (inactive), the GI50 [50] was 0.711 µM (active) and the GI50 [51] was 1.79 µM (inactive). For the same molecule, the GI50 [52] was 1.58 µM (inactive), the GI50 [53] was 2.84 µM (inactive) and the GI50 [54] was 1.51 µM (inactive). The GI50 [55] was 0.499 µM (active), the GI50 [56] was 1.04 µM (active) and the GI50 [57] was 1.63 µM (inactive). The GI50 [58] was 1.85 µM (inactive).
For CCOC(=O)c1nc2ccccc2nc1Oc1cc(OC)c(OC)c(OC)c1, the GI50 [1] was > 100 µM (inactive), the GI50 [2] was > 100 µM (inactive) and the GI50 [3] was > 100 µM (inactive). For the same molecule, the GI50 [4] was 35 µM (inactive), the GI50 [5] was > 100 µM (inactive) and the GI50 [6] was > 100 µM (inactive). The GI50 [7] was 47.6 µM (inactive), the GI50 [8] was > 100 µM (inactive) and the GI50 [9] was 84.5 µM (inactive). The GI50 [10] was > 100 µM (inactive), the GI50 [11] was > 100 µM (inactive) and the GI50 [12] was > 100 µM (inactive). The GI50 [14] was > 100 µM (inactive), the GI50 [15] was > 100 µM (inactive) and the GI50 [16] was > 100 µM (inactive). For the same molecule, the GI50 [17] was > 100 µM (inactive), the GI50 [18] was > 100 µM (inactive) and the GI50 [19] was > 100 µM (inactive). The GI50 [20] was 51.2 µM (inactive), the GI50 [21] was > 100 µM (inactive) and the GI50 [22] was 27.1 µM (inactive). The GI50 [23] was 45.2 µM (inactive), the GI50 [24] was > 100 µM (inactive) and the GI50 [25] was > 100 µM (inactive). For the same molecule, the GI50 [26] was > 100 µM (inactive), the GI50 [27] was > 100 µM (inactive) and the GI50 [28] was > 100 µM (inactive). For the same molecule, the GI50 [30] was over 100 µM, the GI50 [31] was 32.6 µM (inactive) and the GI50 [32] was > 100 µM (inactive). The GI50 [33] was > 100 µM (inactive), the GI50 [34] was > 100 µM (inactive) and the GI50 [35] was > 100 µM (inactive). The GI50 [36] was 31.4 µM (inactive), the GI50 [37] was > 100 µM (inactive) and the GI50 [38] was > 100 µM (inactive). For the same molecule, the GI50 [39] was > 100 µM (inactive), the GI50 [40] was 87.3 µM (inactive) and the GI50 [41] was > 100 µM (inactive). The GI50 [42] was 39.4 µM (inactive), the GI50 [43] was 83.4 µM (inactive) and the GI50 [44] was > 100 µM (inactive). The GI50 [45] was > 100 µM (inactive), the GI50 [46] was > 100 µM (inactive) and the GI50 [47] was > 100 µM (inactive). The GI50 [48] was 38.1 µM (inactive), the GI50 [49] was 44.3 µM (inactive) and the GI50 [50] was > 100 µM (inactive). The GI50 [51] was 90.2 µM (inactive), the GI50 [52] was > 100 µM (inactive) and the GI50 [53] was > 100 µM (inactive). The GI50 [54] was > 100 µM (inactive), the GI50 [56] was > 100 µM (inactive) and the GI50 [57] was 46.9 µM (inactive). The GI50 [58] was > 100 µM (inactive).
With CC1SCCc2nc3ccccc3n21 (centres undefined) the GI50 [2] was > 100 µM (inactive), the GI50 [3] was > 100 µM (inactive) and the GI50 [4] was > 100 µM (inactive). The GI50 [5] was > 100 µM (inactive), the GI50 [6] was > 100 µM (inactive) and the GI50 [7] was > 100 µM (inactive). The GI50 [8] was > 100 µM (inactive), the GI50 [9] was > 100 µM (inactive) and the GI50 [10] was > 100 µM (inactive). The GI50 [11] was > 100 µM (inactive), the GI50 [12] was > 100 µM (inactive) and the GI50 [13] was > 100 µM (inactive). For the same molecule, the GI50 [14] was > 100 µM (inactive), the GI50 [15] was > 100 µM (inactive) and the GI50 [16] was > 100 µM (inactive). For the same molecule, the GI50 [17] was > 100 µM (inactive), the GI50 [18] was > 100 µM (inactive) and the GI50 [19] was > 100 µM (inactive). The GI50 [20] was > 100 µM (inactive), the GI50 [21] was > 100 µM (inactive) and the GI50 [22] was > 100 µM (inactive). For the same molecule, the GI50 [23] was > 100 µM (inactive), the GI50 [24] was > 100 µM (inactive) and the GI50 [25] was > 100 µM (inactive). The GI50 [59] was > 100 µM (inactive), the GI50 [26] was > 100 µM (inactive) and the GI50 [27] was > 100 µM (inactive). The GI50 [28] was > 100 µM (inactive), the GI50 [29] was > 100 µM (inactive) and the GI50 [30] was over 100 µM. The GI50 [31] was > 100 µM (inactive), the GI50 [32] was > 100 µM (inactive) and the GI50 [33] was > 100 µM (inactive). For the same molecule, the GI50 [34] was > 100 µM (inactive), the GI50 [35] was > 100 µM (inactive) and the GI50 [36] was > 100 µM (inactive). For the same molecule, the GI50 [37] was > 100 µM (inactive), the GI50 [38] was > 100 µM (inactive) and the GI50 [39] was > 100 µM (inactive). For the same molecule, the GI50 [40] was > 100 µM (inactive), the GI50 [41] was > 100 µM (inactive) and the GI50 [42] was > 100 µM (inactive). For the same molecule, the GI50 [44] was > 100 µM (inactive), the GI50 [45] was > 100 µM (inactive) and the GI50 [46] was > 100 µM (inactive). For the same molecule, the GI50 [47] was > 100 µM (inactive), the GI50 [48] was > 100 µM (inactive) and the GI50 [49] was > 100 µM (inactive). For the same molecule, the GI50 [50] was > 100 µM (inactive), the GI50 [51] was > 100 µM (inactive) and the GI50 [52] was > 100 µM (inactive). For the same molecule, the GI50 [53] was > 100 µM (inactive), the GI50 [54] was > 100 µM (inactive) and the GI50 [55] was > 100 µM (inactive). The GI50 [56] was > 100 µM (inactive) and the GI50 [58] was > 100 µM (inactive).
